The record followed here is ChEMBL document CHEMBL1152006, “Pharmacological profile and chemical synthesis of SR 48968, a non-peptide antagonist of the neurokinin A (NK2) receptor” (Bioorg Med Chem Lett, 1993).

Bounds are passed on as bounds.

Test [1] deals with Cavia porcellus. As to the kind of experiment: The compound was evaluated for the inhibition of bronchoconstriction in guinea pig at intraduodenal dose of 0.5 mg/Kg. The settings on record: Lung. Format: functional.
The species named for test [2] is Oryctolagus cuniculus. The test is described as follows: The compound was evaluated for the inhibition of [Nle10]-NKA(4-10)-induced contraction of the rabbit pulmonary artery. The settings on record: read-out: pA2 (converted). It is filed as functional.
Test [3] deals with T1, Substance-K receptor (Rattus norvegicus, UniProt P16610).
T1 sequence (P16610 whole entry): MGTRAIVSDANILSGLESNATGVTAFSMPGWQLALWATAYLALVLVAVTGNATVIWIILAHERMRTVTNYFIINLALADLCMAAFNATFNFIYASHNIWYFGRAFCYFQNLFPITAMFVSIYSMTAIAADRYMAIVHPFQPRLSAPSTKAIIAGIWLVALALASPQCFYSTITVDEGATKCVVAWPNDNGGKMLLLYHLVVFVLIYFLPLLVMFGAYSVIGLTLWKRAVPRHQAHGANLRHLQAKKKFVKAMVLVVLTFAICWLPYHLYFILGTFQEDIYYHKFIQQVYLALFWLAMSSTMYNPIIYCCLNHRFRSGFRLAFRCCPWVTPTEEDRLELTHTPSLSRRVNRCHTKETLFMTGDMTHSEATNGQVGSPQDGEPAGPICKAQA
The test is described as follows: Inhibition of [125I]NKA binding to neurokinin NK2 receptor from rat duodenum membranes. It is filed as cell membranes, Membrane.

Test [4] concerns Cavia porcellus. The test is described as follows: The compound was evaluated for the inhibition of bronchoconstriction in guinea pig at intravenous dose of 0.2 mg/Kg. It is filed as functional. The settings on record: Lung.
The test system of test [5] is Cavia porcellus. The test is described as follows: The compound was evaluated for its effect on bronchoconstriction induced by serotonin(10 ug/kg, i.v.) in the guinea pig 60 min after administration. It is filed as functional.
The subject of test [6] is Cavia porcellus. As to the kind of experiment: The compound was evaluated for its effect on bronchoconstriction induced by acetylcholine(60 ug/kg, i.v.) in the guinea pig 60 min after administration. It is filed as functional.
The test system of test [7] is Cavia porcellus. The test is described as follows: The compound was evaluated for its effect on bronchoconstriction induced by histamine(10 ug/kg, i.v.) in the guinea pig 60 min after administration. Format: functional.
Test [8] has as its system Cavia porcellus. The test is described as follows: The compound was evaluated for its effect on bronchoconstriction induced by [Sar9,Met(O2)11]-SP(5 ug/kg, i.v.) in the guinea pig 15 min after administration. Format: functional.
The test system of test [9] is Cavia porcellus. As to the kind of experiment: Tested in vivo to antagonize the NKA-induced bronchoconstriction in guinea pig by intraduodenal route. Format: functional. The settings on record: read-out: ID50 (the source's name).
For test [10], the system named is Cavia porcellus. As to the kind of experiment: The compound was evaluated for its effect on bronchoconstriction induced by [Sar9,Met(O2)11]-SP(5 ug/kg, i.v.) in the guinea pig 60 min after administration. It is filed as functional.
Test [11] deals with Cavia porcellus. The test is described as follows: The compound was evaluated for its effect on bronchoconstriction induced by histamine(10 ug/kg, i.v.) in the guinea pig 15 min after administration. It is filed as functional.
For test [12], the system named is Cavia porcellus. The test is described as follows: The compound was evaluated for its effect on bronchoconstriction induced by serotonin(10 ug/kg, i.v.) in the guinea pig 15 min after administration. It is filed as functional.
The target in test [13] is T2, Substance-K receptor (Mesocricetus auratus, UniProt P51144).
T2 sequence (P51144 whole entry): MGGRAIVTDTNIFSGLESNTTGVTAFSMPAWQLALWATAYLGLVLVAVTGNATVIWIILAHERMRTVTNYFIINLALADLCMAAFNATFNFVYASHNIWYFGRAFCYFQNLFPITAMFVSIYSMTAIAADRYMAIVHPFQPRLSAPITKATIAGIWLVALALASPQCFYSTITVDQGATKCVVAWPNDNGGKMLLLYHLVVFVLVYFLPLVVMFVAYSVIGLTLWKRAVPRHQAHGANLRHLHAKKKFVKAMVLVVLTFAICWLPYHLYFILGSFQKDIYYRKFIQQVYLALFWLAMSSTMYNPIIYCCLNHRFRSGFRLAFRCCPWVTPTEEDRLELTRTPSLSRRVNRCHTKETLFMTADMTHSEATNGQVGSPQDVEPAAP
As to the kind of experiment: The compound was evaluated for the inhibition of [125I]NKA binding to neurokinin NK2 receptor from hamster urinary bladder membranes.

Test [14] relates to Cavia porcellus. The test is described as follows: Tested in vivo to antagonize the NKA-induced bronchoconstriction in guinea pig intravenously. The settings on record: iv, read-out: ID50 (the source's name). It is filed as functional.
In test [15] the test system is Cavia porcellus. As to the kind of experiment: The compound was evaluated for its effect on bronchoconstriction induced by acetylcholine(60 ug/kg, i.v.) in the guinea pig 15 min after administration. Format: functional.
Test [16] addresses T1, Substance-K receptor. As to the kind of experiment: The compound was evaluated for the inhibition of [125I]NKA binding to Tachykinin receptor 2 from rat duodenum membranes. Format: cell membranes, Membrane.

Regarding `CN(CC(CCN1CCC(O)(c2ccccc2)CC1)c1ccc(Cl)c(Cl)c1)C(=O)c1cccs1` (stereo not drawn), the inhibition in vivo at 0.5 mg/kg in test [1] was 73%. In addition, in [2], the Kb is 0.0676 nM. In addition, the affinity in test [3], expressed as Ki, was 1.4 nM. In test [4], this molecule had an inhibition in vivo at 0.2 mg/kg of 93%.
For the molecule `CC(=O)OC1(c2ccccc2)CCN(CCC(CN(C)C(=O)c2ccccc2)c2ccc(Cl)c(Cl)c2)CC1` (stereo not drawn), at 0.5 mg/kg the inhibition in vivo in test [1] was 36%. The same molecule yielded an inhibitory constant (Ki) in test [3] of 0.3 nM. In [4], this molecule returned an inhibition in vivo at 0.2 mg/kg of 98%.
Consider `CCOC1(c2ccccc2)CCN(CCC(CN(C)C(=O)c2ccccc2)c2ccc(Cl)c(Cl)c2)CC1` (stereo not drawn), for which the Kb in test [2] is 0.17 nM. The affinity in test [3], expressed as Ki, was 0.9 nM. In test [4], this molecule registered an inhibition in vivo at 0.2 mg/kg of 40%.
For `CN(CC(CCN1CCC(O)(c2ccccc2)CC1)c1ccc(Cl)c(Cl)c1)C(=O)c1ccsc1` (stereo not drawn), in test [2], the Kb is 0.229 nM. For the same molecule, the affinity in test [3], expressed as Ki, was 1 nM. Besides, the inhibition in vivo at 0.2 mg/kg in [4] came out at 77%.
Turning to `CN(CC(CCN1CCC(O)(c2ccccc2)CC1)c1ccc(Cl)c(Cl)c1)C(=O)c1cccc2ccccc12` (stereo not drawn), in [2], the Kb was 2.34 nM. For the same molecule, in [3], the Ki is 1.5 nM. This molecule registered an inhibition in vivo at 0.2 mg/kg in [4] of 0%.
`CC(=O)NC1(c2ccccc2)CCN(CCC(CNC(=O)c2ccccc2)c2ccc(Cl)c(Cl)c2)CC1` (stereo not drawn) showed a Ki in test [3] greater than 100 nM.
On the same count and under the same terms, under `CC(=O)NCC1(c2ccccc2)CCN(CCC(CN(C)C(=O)c2ccccc2)c2ccc(Cl)c(Cl)c2)CC1` (stereo not drawn) stands 23 nM.
On the same count and under the same terms, in the case of `CN(CC(CCN1CCC(CO)(c2ccccc2)CC1)c1ccc(Cl)c(Cl)c1)C(=O)c1ccccc1` (stereo not drawn) it was 50 nM.
In turn, `CCN(CC(CCN1CCC(OC(C)=O)(c2ccccc2)CC1)c1ccc(Cl)c(Cl)c1)C(=O)c1cccs1` (stereo not drawn) registered an inhibition in vivo at 0.5 mg/kg in test [1] of 34%. Besides, the Kb in test [2] is 0.447 nM. The Ki in test [3] was 0.3 nM. In test [4], this molecule gave an inhibition in vivo at 0.2 mg/kg of 97%.
Molecule `CN(CC(CCN1CCC(c2ccccc2)CC1)c1ccc(Cl)c(Cl)c1)C(=O)c1ccccc1` (stereo not drawn) registered an inhibition constant (Ki) in test [3] greater than 100 nM.
As to `CN(CC(CCN1CCC(O)(c2ccccc2)CC1)c1ccc(Cl)c(Cl)c1)C(=O)c1ccccc1` (stereo not drawn), the Kb in test [2] is 0.182 nM. Further, in test [3], the Ki was determined as 1 nM. Also, the inhibition in vivo at 0.2 mg/kg in [4] is 93%.
On to `CC(=O)NC1(c2ccccc2)CCN(CCC(CN(C)C(=O)c2ccccc2)c2ccc(Cl)c(Cl)c2)CC1` (single isomer, unassigned) [SAREDUTANT], for which the inhibition in vivo at 0.5 mg/kg in [1] worked out at 100%. Also, the Volume of air is 4.7 mL in test [5]; 3.2 mL in test [6]; 3.9 mL in [7]; 4.4 mL in test [8]; 4.2 mL in [10]; 3.2 mL in [11]. In addition, the Volume of air in test [12] was 4.5 mL; in test [15], 2.8 mL. Moreover, the Kb in test [2] is 0.0331 nM. The Ki in test [3] turned out to be 0.5 nM; in [13] it was 1.2 nM. For the same molecule, the ED50 in test [9] was found to be 0.35 mg/kg; in test [14], 0.037 mg/kg. This molecule also came in with an inhibition in vivo at 0.2 mg/kg in test [4] of 100%.
Take `CC(=O)NC1(c2ccccc2)CCN(CC[C@H](CN(C)C(=O)c2ccccc2)c2ccc(Cl)c(Cl)c2)CC1` [SAREDUTANT]: the affinity in test [16], expressed as Ki, was 945 nM. In other words, the sub-micromolar range.
